The test system of the assay is Utrophin A promoter linked to a luciferase reporter gene (H2K/mdx/Utro A reporter cell line). Description: Luciferase reporter assay (murine H2K cells). The assay is classed as cell-based, mouse. To be noted: final concentration of 10 μM, 48 hrs. Here is the method: 1. Luciferase Reporter Assay (Murine […] Cells) The cell line used for the screen is an immortalized mdx mouse H2K cell line that has been stably transfected with a plasmid containing ≈5 kb fragment of the Utrophin A promoter including the first untranslated exon linked to a luciferase reporter gene (see FIG. 1). Under conditions of low temperature and interferon containing media, the cells remain as myoblasts. These are plated into 96 well plates and cultured in the presence of compound for three days. The level of luciferase is then determined by cell lysis and reading of the light output from the expressed luciferase gene utilising a plate luminometer. The H2K/mdx/Utro A Reporter Cell Line Maintenance The H2K/mdx/Utro A reporter cell line was passaged twice a week until ≦30% confluent. The cells were grown at 33° C. in the presence of 10% CO2. To remove the myoblasts for platting, they were incubated with Trypsin/EDTA until the monolayer started to detach. […] Cells were then lysed in situ following the manufacture's protocols (Promega Steady-Glo Luciferase Assay System (E2520), then counted for 10 seconds using a plate luminometer (Victor1420). Biological activity was assessed using the luciferase reporter assay in murine H2K cells, and is classified as follows: […]

In the case of `CCS(=O)(=O)c1ccc2oc(-c3ccc4ccccc4c3)nc2c1` [5-(ethylsulfonyl)-2-(naphthalen-2-yl)benzo[d]oxazole], the “Biological activity, luciferase reporter assay, relative to control” value is “+++ (Between 301% and 400% relative to control)”.

The record behind these values is patent US8138351B2, “Treatment of duchenne muscular dystrophy” (Summit Corporation PLC, priority 2007, dated 2012).
